What was measured:
HepG2 cells = test: Annexin V/PI apoptosis assay (confocal imaging and flow cytometry); format: cell-based; conditions: for apoptosis (apoptotic cells by flow cytometry): 5 μM sorafenib and/or 0.5 μM Dox
Description: Apoptosis studies: In the next step, the mode of cell death using Annexin V/PI apoptosis assay was investigated. […] The apoptotic cells using flow cytometry were also quantified. […] Even after combining both the drugs (5 μM sorafenib (5S) with 0.5 μM Dox (0.5D)), a maximum of only ˜60% apoptosis was registered (FIG. 15D). In contrast, as separate nanoformulations, the nano-shell (containing 5 μM sorafenib, (5AST)) (FIG. 15F), and the nano-core (containing 0.5 μM Dox, (0.5PD)) (FIG. 15G) have shown slight improvement in apoptosis (˜39% by shell, and ˜61% by core). After combining the two in a core-shell targeted fashion, excellent apoptosis was registered in ˜91% cells (FIG. 15H).

TfR = test: Transferrin receptor expression in HepG2 cells by flow cytometry; format: cell-based
Description: Transferrin receptor expression and cellular uptake: In the next step, the expression of TfR in HepG2 cells was studied using flow cytometry. […] After creating an iron deficient microenvironment by treating the cells with 100 μM DFO, the number of the TfR-expressing cells increased to ˜89% (FIG. 13C). […] Following that, intracellular uptake of the core-shell nanoparticles in cancer cells was investigated. […] After creating iron-deficient microenvironment, the uptake was further increased to ˜94% (FIG. 13G) due to the increase in the number of TfRexpressing cells. Upon addition of iron-loaded transferrin, the uptake was dropped to ˜69% due to the saturation of TfR expression in these cells (FIG. 13H).

Compound: CC(=O)N(O)CCCCCNC(=O)CCC(=O)N(O)CCCCCNC(=O)CCC(=O)N(O)CCCCCN [DFO]
- viability of TfR overexpressing cells (HepG2 cells; pretreatment with 100 μM DFO, FIG. 15E): did not affect the viability
- number of TfR-expressing cells (TfR; HepG2 cells treated with 100 μM DFO (iron deficient microenvironment), ~76% before iron chelation): ~89%

Compound: COc1cccc2c1C(=O)c1c(O)c3c(c(O)c1C2=O)C[C@@](O)(C(=O)CO)C[C@@H]3O[C@H]1C[C@H](N)[C@H](O)[C@H](C)O1 [Dox, doxorubicin]
- apoptosis (apoptotic cells by flow cytometry) (HepG2 cells): ~53%

Compound: CNC(=O)c1cc(Oc2ccc(NC(=O)Nc3ccc(Cl)c(C(F)(F)F)c3)cc2)ccn1 [sorafenib]
- apoptosis (apoptotic cells by flow cytometry) (HepG2 cells): ~38%

Compound: holotransferrin: iron-loaded transferrin
- number of TfR-expressing cells (TfR; HepG2 cells, upon addition of iron-loaded transferrin (holotransferrin)): ~42%

Source: patent US10143700B2, “Nanoparticle formulations for delivering multiple therapeutic agents” (Amrita Vishwa Vidyapeetham University, priority 2013, dated 2018)
